Source: patent publication US20230406885A1, “CYCLIC PEPTIDES FOR TRAPPING INTERLEUKIN-1 BETA” (MERCK SHARP & DOHME LLC, priority 2022, published 2023)
*1 amine or outer side, *2 acyl side, *3 side chain or, on linkers, in order; H or OH if unused. Where a SMILES comes first, the peptide text is derived from it. [ ]: non-standard residue; d: D form. Phe(4-(trans-4-COOH-cHex)) = N[C@@H](Cc1ccc([C@H]2CC[C@H](C(=O)O)CC2)cc1)C(=O)O; Phe(4-(4-Ac-piperazinyl)) = CC(=O)N1CCN(c2ccc(C[C@H](N)C(=O)O)cc2)CC1; Trp(4-Cl)(βS-Me) = C[C@@H](c1c[nH]c2cccc(Cl)c12)[C@H](N)C(=O)O; Ala(piperidin-4-yl) = O=C([C@H](CC1CCN([*:3])CC1)N[*:1])[*:2]; Trp(βS-Me,4-F) = C[C@@H](c1c[nH]c2cccc(F)c12)[C@H](N)C(=O)O; Bip(4'-COOH) = N[C@@H](Cc1ccc(-c2ccc(C(=O)O)cc2)cc1)C(=O)O; Phe(3-CH2NH2) = O=C([C@H](Cc1cccc(CN[*:3])c1)N[*:1])[*:2]; X1 = CC(=O)N1CCN(c2ccc(C[C@H](N[*:1])C(=O)[*:2])cn2)CC1; 1Nal(3S-Me) = C[C@@H](c1cccc2ccccc12)[C@H](N)C(=O)O; hPhe(4-CF3) = N[C@@H](CCc1ccc(C(F)(F)F)cc1)C(=O)O; Trp(6-Cl) = N[C@@H](Cc1c[nH]c2cc(Cl)ccc12)C(=O)O; Phe(4-COOH) = N[C@@H](Cc1ccc(C(=O)O)cc1)C(=O)O; h3Pal(5-CN) = N#Cc1cncc(CC[C@H](N)C(=O)O)c1; Pro(4R-NH2) = N[C@H]1CN[C@H](C(=O)O)C1; 1Nal = N[C@@H](Cc1cccc2ccccc12)C(=O)O; Ala(4-THP) = N[C@@H](CC1CCOCC1)C(=O)O; AEF = NCCOc1ccc(C[C@H](N)C(=O)O)cc1; hTyr = N[C@@H](CCc1ccc(O)cc1)C(=O)O; hCha = N[C@@H](CCC1CCCCC1)C(=O)O; 4Pal = N[C@@H](Cc1ccncc1)C(=O)O; Dap(Me2) = CN(C)C[C@H](N)C(=O)O; Aad = N[C@@H](CCCC(=O)O)C(=O)O; dDab = NCC[C@@H](N)C(=O)O; dNva = CCC[C@@H](N)C(=O)O; Orn = NCCC[C@H](N)C(=O)O; dNMeA = CN[C@H](C)C(=O)O; Dab = NCC[C@H](N)C(=O)O

molecular target: T1, Recombinant human IL-1β (Homo sapiens, UniProt P01584); assay: IL-6 assay in MRC5 cells: inhibition of IL-1β induced IL-6 secretion (AlphaLISA); assay type: cell-based; conditions: inhibition of IL-1β induced IL-6 secretion in MRC5 cells; IL-1β pre-incubated 1 hour with compound; read-out: MRC5 IC50
T1 construct: purchased BioLegend 579404
T1 sequence (P01584 117-269): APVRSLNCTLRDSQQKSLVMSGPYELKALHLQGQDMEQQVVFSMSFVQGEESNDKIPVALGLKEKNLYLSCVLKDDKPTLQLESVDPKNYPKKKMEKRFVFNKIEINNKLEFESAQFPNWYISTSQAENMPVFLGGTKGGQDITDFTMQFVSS
In short: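 IL-1β at 2×EC80 in seeding medium (EMEM, 0.025% BSA) preincubated 1 h at ambient temperature with compound, then 3000 MRC5 cells/well added and incubated overnight at 37 °C, 5% CO2. IL-6 in conditioned medium quantified by AlphaLISA; IC50 from 4-parameter logistic fit.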

Point of comparison: `C[C@@H]1C(=O)NCC(=O)N[C@@H](Cc2ccc(-c3ccc(C(=O)O)cc3)cc2)C(=O)N[C@@H](Cc2cccc(CN)c2)C(=O)N[C@@H](CO)C(=O)N[C@H](C)C(=O)N[C@@H](CCc2ccc(O)cc2)C(=O)N[C@@H](Cc2ccc(-c3ccc(C(=O)O)cc3)cc2)C(=O)N[C@@H](Cc2c[nH]c3ccccc23)C(=O)N[C@@H](Cc2ccc(C(=O)O)cc2)C(=O)NCC(=O)N2C[C@H](N)C[C@H]2C(=O)N[C@@H]([C@@H](C)c2c[nH]c3cccc(Cl)c23)C(=O)N[C@@H](CC(=O)O)C(=O)N1C` [Example 48] (cyclo([Bip(4'-COOH)]W[Phe(4-COOH)]G[Pro(4R-NH2)][Trp(4-Cl)(βS-Me)]D[dNMeA]G[Bip(4'-COOH)][Phe(3-CH2NH2)]S[dA][hTyr])), IC50 0.041 nM. Against it:
- CC(=O)NCCOc1ccc(C[C@@H]2NC(=O)[C@H](CCc3ccc(C(F)(F)F)cc3)NC(=O)[C@@H](C)NC(=O)[C@H](CCN)NC(=O)[C@H](Cc3ccncc3)NC(=O)[C@H](Cc3ccc(-c4ccc(C(=O)O)cc4)cc3)NC(=O)CNC(=O)[C@@H](C)N(C)C(=O)[C@H](CC(=O)O)NC(=O)[C@H]([C@@H](C)c3cccc4ccccc34)NC(=O)[C@@H]3C[C@@H](N)CN3C(=O)CNC(=O)[C@H](Cc3ccc(C(=O)O)cc3)NC(=O)[C@H](Cc3c[nH]c4ccccc34)NC2=O)cc1 [Example 100] (cyclo([AEF](Ac)W[Phe(4-COOH)]G[Pro(4R-NH2)][1Nal(3S-Me)]D[dNMeA]G[Bip(4'-COOH)][4Pal][Dab][dA][hPhe(4-CF3)])) — 6.7-fold higher, 0.274 nM
- CC(=O)N1CCN(c2ccc(C[C@@H]3NC(=O)[C@H](CCc4cncc(C#N)c4)NC(=O)[C@@H](C)NC(=O)[C@H](CC(C)C)NC(=O)[C@H](CCCCN)NC(=O)[C@H](Cc4ccc(-c5ccc(C(=O)O)cc5)cc4)NC(=O)CNC(=O)[C@@H](C)N(C)C(=O)[C@H](CC(=O)O)NC(=O)[C@H]([C@@H](C)c4cccc5ccccc45)NC(=O)[C@@H]4C[C@@H](N)CN4C(=O)CNC(=O)[C@H](Cc4ccc(C(=O)O)cc4)NC(=O)[C@H](Cc4c[nH]c5ccccc45)NC3=O)cn2)CC1 [Example 2] (cyclo([X1]W[Phe(4-COOH)]G[Pro(4R-NH2)][1Nal(3S-Me)]D[dNMeA]G[Bip(4'-COOH)]KL[dA][h3Pal(5-CN)])) — 1.9-fold lower, 0.0217 nM
- CC(C)C[C@@H]1NC(=O)[C@H](CCCCN)NC(=O)[C@H](Cc2ccc(-c3ccc(C(=O)O)cc3)cc2)NC(=O)CNC(=O)[C@@H](C)N(C)C(=O)[C@H](CC(=O)O)NC(=O)[C@H]([C@@H](C)c2c[nH]c3cccc(F)c23)NC(=O)[C@@H]2C[C@@H](N)CN2C(=O)CNC(=O)[C@H](Cc2ccc(C(=O)O)cc2)NC(=O)[C@H](Cc2c[nH]c3ccccc23)NC(=O)[C@H](Cc2ccc(-c3ccc(C(=O)O)cc3)cc2)NC(=O)[C@H](CCc2ccc(O)cc2)NC(=O)CNC1=O [Example 70] (cyclo([Bip(4'-COOH)]W[Phe(4-COOH)]G[Pro(4R-NH2)][Trp(βS-Me,4-F)]D[dNMeA]G[Bip(4'-COOH)]KLG[hTyr])) — 2.4-fold higher, 0.0973 nM
- C[C@@H]1C(=O)NCC(=O)N[C@@H](Cc2ccc(-c3ccc(C(=O)O)cc3)cc2)C(=O)N[C@@H](CCCCN)C(=O)N[C@@H](CC2CCOCC2)C(=O)N[C@H](C)C(=O)N[C@@H](CCc2ccc(O)cc2)C(=O)N[C@@H](Cc2ccc(-c3ccc(C(=O)O)cc3)cc2)C(=O)N[C@@H](Cc2c[nH]c3ccccc23)C(=O)N[C@@H](Cc2ccc(C(=O)O)cc2)C(=O)NCC(=O)N2C[C@H](N)C[C@H]2C(=O)N[C@@H]([C@@H](C)c2c[nH]c3cccc(F)c23)C(=O)N[C@@H](CC(=O)O)C(=O)N1C [Example 65] (cyclo([Bip(4'-COOH)]W[Phe(4-COOH)]G[Pro(4R-NH2)][Trp(βS-Me,4-F)]D[dNMeA]G[Bip(4'-COOH)]K[Ala(4-THP)][dA][hTyr])) — 2.6-fold lower, 0.0158 nM

same assay, conditions: inhibition of IL-1β induced IL-6 secretion in MRC5 cells; read-out: MRC5 IC50

Point of comparison: `CC(=O)N1CCN(c2ccc(C[C@@H]3NC(=O)[C@H](CCC4CCCCC4)NC(=O)[C@@H](C)NC(=O)[C@H](CC(C)C)NC(=O)[C@H](CCCN)NC(=O)[C@H](Cc4ccc(-c5ccc(C(=O)O)cc5)cc4)NC(=O)CNC(=O)[C@@H](C)N(C)C(=O)[C@H](CC(=O)O)NC(=O)[C@H]([C@@H](C)c4cccc5ccccc45)NC(=O)[C@@H]4C[C@@H](N)CN4C(=O)CNC(=O)[C@H](Cc4ccc(C(=O)O)cc4)NC(=O)[C@H](Cc4c[nH]c5ccccc45)NC3=O)cc2)CC1` [Example 209] (cyclo([Phe(4-(4-Ac-piperazinyl))]W[Phe(4-COOH)]G[Pro(4R-NH2)][1Nal(3S-Me)]D[dNMeA]G[Bip(4'-COOH)][Orn]L[dA][hCha])), IC50 0.009 nM. Against it:
- CC(=O)NCCOc1ccc(C[C@@H]2NC(=O)[C@H](CC3CCNCC3)NC(=O)[C@@H](C)NC(=O)[C@H](CC(C)C)NC(=O)[C@H](Cc3c[nH]c4ccccc34)NC(=O)[C@H](Cc3ccc(-c4ccc(C(=O)O)cc4)cc3)NC(=O)CNC(=O)[C@@H](C)N(C)C(=O)[C@H](CC(=O)O)NC(=O)[C@H]([C@@H](C)c3c[nH]c4cccc(F)c34)NC(=O)[C@@H]3C[C@@H](N)CN3C(=O)CNC(=O)[C@H](Cc3ccc(C(=O)O)cc3)NC(=O)[C@H](Cc3c[nH]c4ccccc34)NC2=O)cc1 [Example 165] (cyclo([AEF](Ac)W[Phe(4-COOH)]G[Pro(4R-NH2)][Trp(βS-Me,4-F)]D[dNMeA]G[Bip(4'-COOH)]WL[dA][Ala(piperidin-4-yl)])) — 87-fold higher, 0.781 nM
- CC(C)C[C@@H]1NC(=O)[C@H](CCCCN)NC(=O)[C@H](Cc2ccc(-c3ccc(C(=O)O)cc3)cc2)NC(=O)CNC(=O)[C@@H](C)N(C)C(=O)[C@H](CC(=O)O)NC(=O)[C@H]([C@@H](C)c2c[nH]c3cccc(F)c23)NC(=O)[C@@H]2C[C@@H](N)CN2C(=O)CNC(=O)[C@H](Cc2ccc(C(=O)O)cc2)NC(=O)[C@H](Cc2c[nH]c3cc(Cl)ccc23)NC(=O)[C@H](Cc2ccc(-c3ccc(C(=O)O)cc3)cc2)NC(=O)[C@H](CCc2ccc(O)cc2)NC(=O)[C@@H](C)NC1=O [Example 184] (cyclo([Bip(4'-COOH)][Trp(6-Cl)][Phe(4-COOH)]G[Pro(4R-NH2)][Trp(βS-Me,4-F)]D[dNMeA]G[Bip(4'-COOH)]KL[dA][hTyr])) — 2-fold higher, 0.018 nM
- CCC[C@H]1NC(=O)[C@H](CC(C)C)NC(=O)[C@H](CCCCN)NC(=O)[C@H](Cc2ccc(-c3ccc(C(=O)O)cc3)cc2)NC(=O)CNC(=O)[C@@H](C)N(C)C(=O)[C@H](CC(=O)O)NC(=O)[C@H]([C@@H](C)c2cccc3ccccc23)NC(=O)[C@@H]2C[C@@H](N)CN2C(=O)CNC(=O)[C@H](Cc2ccc(C(=O)O)cc2)NC(=O)[C@H](Cc2c[nH]c3ccccc23)NC(=O)[C@H](Cc2ccc(N3CCN(C(C)=O)CC3)nc2)NC(=O)[C@H](CCc2cncc(C#N)c2)NC1=O [Example 180] (cyclo([X1]W[Phe(4-COOH)]G[Pro(4R-NH2)][1Nal(3S-Me)]D[dNMeA]G[Bip(4'-COOH)]KL[dNva][h3Pal(5-CN)])) — 2.3-fold higher, 0.021 nM
- CC(=O)NCCOc1ccc(C[C@@H]2NC(=O)[C@H](CCc3ccc(O)cc3)NC(=O)[C@@H](C)NC(=O)[C@H](CN(C)C)NC(=O)[C@H](Cc3c[nH]c4ccccc34)NC(=O)[C@H](Cc3ccc(-c4ccc(C(=O)O)cc4)cc3)NC(=O)CNC(=O)[C@@H](C)N(C)C(=O)[C@H](CC(=O)O)NC(=O)[C@H]([C@@H](C)c3c[nH]c4cccc(Cl)c34)NC(=O)[C@@H]3C[C@@H](N)CN3C(=O)CNC(=O)[C@H](Cc3ccc(C(=O)O)cc3)NC(=O)[C@H](Cc3c[nH]c4ccccc34)NC2=O)cc1 [Example 146] (cyclo([AEF](Ac)W[Phe(4-COOH)]G[Pro(4R-NH2)][Trp(4-Cl)(βS-Me)]D[dNMeA]G[Bip(4'-COOH)]W[Dap(Me2)][dA][hTyr])) — 13-fold higher, 0.114 nM
- C[C@@H]1C(=O)NCC(=O)N[C@@H](Cc2ccc(-c3ccc(C(=O)O)cc3)cc2)C(=O)N[C@@H](Cc2ccncc2)C(=O)NCC(=O)N[C@H](CCN)C(=O)N[C@@H](CCC2CCCCC2)C(=O)N[C@@H](Cc2ccc([C@H]3CC[C@H](C(=O)O)CC3)cc2)C(=O)N[C@@H](Cc2c[nH]c3ccccc23)C(=O)N[C@@H](Cc2ccc(C(=O)O)cc2)C(=O)NCC(=O)N2C[C@H](N)C[C@H]2C(=O)N[C@@H]([C@@H](C)c2cccc3ccccc23)C(=O)N[C@@H](CC(=O)O)C(=O)N1C [Example 196] (cyclo([Phe(4-(trans-4-COOH-cHex))]W[Phe(4-COOH)]G[Pro(4R-NH2)][1Nal(3S-Me)]D[dNMeA]G[Bip(4'-COOH)][4Pal]G[dDab][hCha])) — 3.3-fold higher, 0.03 nM
- CC(=O)N1CCN(c2ccc(C[C@@H]3NC(=O)[C@H](CCc4cncc(C#N)c4)NC(=O)[C@@H](C)NC(=O)[C@H](CC(C)C)NC(=O)[C@H](CCCC(N)=O)NC(=O)[C@H](Cc4ccc(-c5ccc(C(=O)O)cc5)cc4)NC(=O)CNC(=O)[C@@H](C)N(C)C(=O)[C@H](CC(=O)O)NC(=O)[C@H]([C@@H](C)c4cccc5ccccc45)NC(=O)[C@@H]4C[C@@H](N)CN4C(=O)CNC(=O)[C@H](Cc4ccc(C(=O)O)cc4)NC(=O)[C@H](Cc4c[nH]c5ccccc45)NC3=O)cn2)CC1 [Example 176] (cyclo([X1]W[Phe(4-COOH)]G[Pro(4R-NH2)][1Nal(3S-Me)]D[dNMeA]G[Bip(4'-COOH)][Aad](NH2)L[dA][h3Pal(5-CN)])) — 1.9-fold higher, 0.017 nM
- CC(=O)NCCOc1ccc(C[C@@H]2NC(=O)[C@H](CCc3ccc(O)cc3)NC(=O)[C@@H](C)NC(=O)[C@H](CC(C)C)NC(=O)[C@H](Cc3cccc4ccccc34)NC(=O)[C@H](Cc3ccc(-c4ccc(C(=O)O)cc4)cc3)NC(=O)CNC(=O)[C@@H](C)N(C)C(=O)[C@H](CC(=O)O)NC(=O)[C@H]([C@@H](C)c3c[nH]c4cccc(Cl)c34)NC(=O)[C@@H]3C[C@@H](N)CN3C(=O)CNC(=O)[C@H](Cc3ccc(C(=O)O)cc3)NC(=O)[C@H](Cc3c[nH]c4ccccc34)NC2=O)cc1 [Example 131] (cyclo([AEF](Ac)W[Phe(4-COOH)]G[Pro(4R-NH2)][Trp(4-Cl)(βS-Me)]D[dNMeA]G[Bip(4'-COOH)][1Nal]L[dA][hTyr])) — 5.5-fold higher, 0.0498 nM
